How the values were obtained:
[1] = Acute toxicity by oral administration, mice
[2] = Step-through passive avoidance learning test; format: in vivo, male ICR strain mouse (5-weeks-old); settings: 3 mg/kg p.o.
Experimental: (§1) A male ICR strain mouse (5-weeks-old) was admitted in a bright chamber of a step-through passive avoidance learning device. After 60 seconds, a guillotine door was opened. Just after the mouse entered a dark room, the guillotine door was shut, and a foot shock of 0.15 mA was given to the mouse for 5 seconds. This operation was conducted until the mouse stayed in the bright room for more than 1 minute. Then, the mouse was taken out and 3 mg/kg of the compound of the formula was orally administered, and the mouse was returned to a home cage.
(§2) After 24 hours, the mouse was admitted into the bright chamber, and after 60 seconds, the guillotine door was opened and the time required for the mouse to enter in the dark room was measured as 300 seconds at longest. Furthermore, 3 mg/kg of the compound of the formula was orally administered, and the spontaneous movement quantity for 4 hours after the oral administration was measured by an animex and the total quantity was calculated. Note, 1% Tween was orally administered to the control group.

[3] = tested on: acetylcholine (ACh) content at subcerebral part; test: ACh content at subcerebral part (HPLC-ECD), with or without scopolamine; format: in vivo, male ICR strain mouse (9-weeks-old)
Experimental: (§3) The compound of the formula was orally administered to a male ICR strain mouse (9-weeks-old), and after 2 hours, 2 mg/kg of scopolamine was applied to the abdominal cavity. After 30 minutes, the mouse was irradiated with 10 KW of microwaves for 0.5 seconds, and the brain was extracted and then divided into two parts, that is, the cerebral cortex (inclusive of hippocampus) and the subcerebral part. The wet weights were measured and the acetylcholine (hereinafter referred to as "ACh") contents were measured according to the following method.
(§4) Each part of the brain was homogenized by 0.1N perchloric acid (HClO4)and subjected to centrifugal separation under 30000 g for 15 minutes. The supernatant was passed through a 0.45 μm microfilter and poured into HPLC-ECD.
(§5) The measurement conditions were as follows.
(§6) Moving phase: phosphate buffer (pH 8.0)
(§7) Enzyme immobilized column: Eicom AC-Enzmpak
(§8) Anakyzing column: Eicom AC-ODS (4.6 mm in diameter and 250 mm in length)
(§9) The compound of the formula was orally administered while scopolamine was not applied, and after 2 hours and 30 minutes, the ACh content was determined in the same manner as described above.

[4] = tested on: acetylcholine (ACh) content at cerebral cortex; test: ACh content at cerebral cortex (HPLC-ECD), with or without scopolamine; format: in vivo, male ICR strain mouse (9-weeks-old)
Experimental: as §3, §4, §5, §6, §7, §8, §9

[5] = Spontaneous movement quantity measured by animex; format: in vivo, male ICR strain mouse (5-weeks-old); settings: 3 mg/kg p.o.; 4 hours after administration; control 5123 ± 259
Experimental: as §1, §2

[6] = Acute toxicity by oral administration, rats; settings: rat, in vivo
[7] = tested on: locomotor activity by scopolamine; test: Scopolamine-induced locomotor activity measured by animex; format: in vivo, male ICR strain mouse (6-weeks-old); settings: 3 mg/kg p.o.
Experimental: In the same manner as described in Test Example 2, 3 mg/kg of the compound of the formula was orally administered to a male ICR strain mouse (6-weeks-old), and after 2 hours, 2 mg/kg of scopolamine was intraperitoneally administered. For 120 minutes from the point of the application, the locomotor activity was measured by an animex. To the control group, 1% Tween 80 was orally administered and 2 mg/kg of scopolamine was intraperitoneally administered, and the locomotor activity was similarly measured.

[8] = tested on: locomotor activity by methamphethamine; test: Methamphethamine-induced locomotor activity measured by animex; format: in vivo, male ICR strain mouse (5-weeks-old); settings: 3 mg/kg p.o.
Experimental: The compound of the formula (3 mg/kg) was orally administered to a male ICR strain mouse (5-weeks-old), and after 2 hours, 2 mg/kg of methamphethamine was intraperitoneally administered. The locomotor activity for every 15 minutes was measured by an animex, and the measurement was conducted for 120 minutes. To the control group, 1% Tween 80 was administered instead of the compound of the formula, and after 2 hours, 2 mg/kg of methamphethamine was intraperitoneally administered. The locomotor activity was similarly measured.

[9] = also under the application of scopolamine

SMILES: COc1cc2c(c(OC)c1OC)-c1c(cc(OC)c(OC)c1OC)C[C@](C)(O)[C@@H](C)C2 [compound of the formula]
- LD50 ([1]; mouse, in vivo, po): 900 mg/kg
- toxicity (in words) ([1]; oral acute toxicity, mice and rats): low toxicity
- avoidance learning function (in words) [2]: a reduction of the avoidance learning function is not observed
- time required for mouse to enter dark room ([2]; 24 hours after foot shock training, measured as 300 seconds at longest, control 229 ± 30.4): > 300 s
- ACh content at subcerebral part ([3]; 3 mg/kg p.o., 2 mg/kg scopolamine after 2 h, scopolamine alone 23.3): 26.9 nM/g of wet weight
- ACh content at subcerebral part ([3]; 3 mg/kg p.o., no scopolamine, 2 h 30 min, untreated 27.8): 35.0 nM/g of wet weight
- ACh content at subcerebral part ([3]; 30 mg/kg p.o., 2 mg/kg scopolamine after 2 h, scopolamine alone 23.3): 26.1 nM/g of wet weight
- ACh content at subcerebral part ([3]; 30 mg/kg p.o., no scopolamine, 2 h 30 min, untreated 27.8): 38.9 nM/g of wet weight
- ACh content at subcerebral part (in words) [3, 9]: increases the ACh contents at the cerebral cortex and the subcerebral part
- ACh content at cerebral cortex ([4]; 3 mg/kg p.o., 2 mg/kg scopolamine after 2 h, scopolamine alone 11.4): 13.9 nM/g of wet weight
- ACh content at cerebral cortex ([4]; 3 mg/kg p.o., no scopolamine, 2 h 30 min, untreated 15.7): 20.9 nM/g of wet weight
- ACh content at cerebral cortex ([4]; 30 mg/kg p.o., 2 mg/kg scopolamine after 2 h, scopolamine alone 11.4): 13.7 nM/g of wet weight
- ACh content at cerebral cortex ([4]; 30 mg/kg p.o., no scopolamine, 2 h 30 min, untreated 15.7): 21.7 nM/g of wet weight
- ACh content at cerebral cortex (in words) [4, 9]: increases the ACh contents at the cerebral cortex
- sum of spontaneous movement quantity for 4 hours [5]: 6693 ± 474
- LD50 [6]: 900 mg/kg
- locomotor activity by scopolamine (in words) [7]: controls the locomotor activity by scopolamine
- locomotor activity ([7]; 2 h before 2 mg/kg i.p. scopolamine, for 120 minutes, control 6353±296): 3991±389
- locomotor activity by methamphethamine (in words) [8]: controls the locomotor activity by methamphethamine
- locomotor activity after 15 minutes ([8]; 2 h before 2 mg/kg i.p. methamphethamine, after 15 minutes, control 1250 ± 68): 1034 ± 111
- locomotor activity after 30 minutes ([8]; 2 h before 2 mg/kg i.p. methamphethamine, after 30 minutes, control 1551 ± 33): 1295 ± 34
- locomotor activity after 45 minutes ([8]; 2 h before 2 mg/kg i.p. methamphethamine, after 45 minutes, control 1511 ± 32): 1245 ± 50
- locomotor activity after 60 minutes ([8]; 2 h before 2 mg/kg i.p. methamphethamine, after 60 minutes, control 1429 ± 38): 1156 ± 49
- locomotor activity after 75 minutes ([8]; 2 h before 2 mg/kg i.p. methamphethamine, after 75 minutes, control 1344 ± 34): 1087 ± 40
- locomotor activity after 90 minutes ([8]; 2 h before 2 mg/kg i.p. methamphethamine, after 90 minutes, control 1228 ± 44): 989 ± 53
- locomotor activity after 120 minutes ([8]; 2 h before 2 mg/kg i.p. methamphethamine, after 120 minutes, control 1126 ± 28): 898 ± 60

Reference: patent publication US5026733A, “Brain function-improving medicine” (Tsumura & Co., priority 1988, dated 1991)
